In brackets after ≈: the same amount, converted by molar mass. Where two headings read alike, the source gives them in different places.
Assays:
B. subtilis EC1524 = experiment: Micro-broth dilution and drop plate antimicrobial susceptibility test; format: cell-based, Bacillus subtilis
Method: (§1) In a sterile 96-well plate, serial dilutions were made with the test substance to final volume of 50 μl. Inoculum was then prepared in Mueller-Hinton broth to 0.5 McFarland and diluted before adding 50 μl to the well to make ∼1x10^5 CFU/ml. The culture plate was incubated at 35 °C for 20-24 hrs. A positive growth control and sterility wells were also prepared along with the culture wells. Absorbance at OD600 was taken using BMG Labtech SPECTROstar Omega spectrophotometer. MIC is determined by the lowest concentration without growth. IC50 is determined from plotting a dose-response curve, see Data Analysis below. To determine the MBC, using a multi-channel pipette, 1 μl of culture broth was taken from the same 96-well microdilution growth plate and carefully inoculated on surface of MH agar plate. The plate is then incubated for additional 20 hrs. at 35 °C. The MBC value is the lowest concentration without observed growth on the agar.

B. cereus ATCC11778 = experiment: as above; format: cell-based, Bacillus cereus
Method: as §1

E. coli ATCC25922 = experiment: as above; format: cell-based; details: Escherichia coli
Method: as §1

P. aeruginosa ATCC27853 = experiment: as above; format: cell-based; details: Pseudomonas aeruginosa
Method: as §1

S. aureus ATCC29219 = experiment: as above; format: cell-based; details: Staphylococcus aureus
Method: as §1

Mtb H37Rv ATCC27294 = experiment: Minimum inhibitory concentrations testing against Mtb; format: cell-based, Mycobacterium tuberculosis; details: for MIC: Mycobacterium tuberculosis
HEK293 cells = experiment: Cell proliferation assay (MTS); format: cell-based, human; details: for LD50 values, HEK293: MTS cell proliferation assay, 24 hrs, highest concentration 400 µg mL-1
Method: (§2) In sterile 96-well plate, each well was seeded with ∼1x10^5 cells. The cells are then grown confluent overnight in 100 μl DMEM with 10% FBS. The medium is replenished with DMEM with 2% FBS and added vehicle control or test substance the next day. For test substance in methanol, stock was added to 25 μl of DMEM with 2% FBS or PBS and placed in the laminar flow hood to let the methanol evaporate (about 1-3 hrs). Once the methanol has evaporated, DMEM with 2% FBS was added to final volume of 100 μl of desired test concentration. […] Cells are grown for additional 24 hrs. The cell viability was determined by using Promega CellTiter 96^© AQueous One Solution Cell Proliferation Assay (3-(4,5-dimethylthiazol-2-yl)-5-(3-carboxymethoxyphenyl)-2-(4-sulfophenyl)-2H-tetrazolium, inner salt; MTS) System following the manufacture protocol.

HepG2 cells = experiment: Cell proliferation assay (MTS); format: cell-based, human; details: for LD50 values, HepG2: MTS cell proliferation assay, 24 hrs, highest concentration 400 µg mL-1
Method: as §2

Raji cells = experiment: Cell proliferation assay (MTS); format: cell-based, human; details: 24 hrs
Method: as §2

[1] = minimal lethal dose / MIC, 800 μg mL-1 used for >400
[2] = serial 2-fold dilutions (Table S6)
[3] = 168 h, Mtb H37Rv, minimal growth medium, read-out: 1-week MIC in GAST/Fe
[4] = 168 h, Mtb H37Rv, rich 7H9-based growth medium, read-out: 1-week MIC in 7H9/ADC/Tw

Q: Which results are given for `CC(C)=CCC[C@H](C)CC(=O)N[C@H]1[C@H](O[C@H]2O[C@H](CO)[C@@H](O)[C@H](O)[C@H]2NC(=O)C[C@@H](C)CCC=C(C)C)O[C@H](C[C@@H](O)[C@H]2O[C@@H](n3ccc(=O)[nH]c3=O)[C@H](O)[C@@H]2O)[C@H](O)[C@@H]1O` [TUN-Cit,Cit, Di-N-citronoyl-tunicamycin]?
A: IC50 (B. subtilis EC1524; Bacillus subtilis, EC1524): 0.36 ± 0.12 µg/mL (≈ 0.413 µM); MBC (B. subtilis EC1524; Bacillus subtilis, EC1524): > 200 µg/mL; MIC (B. subtilis EC1524; Bacillus subtilis, EC1524): 5.2 ± 1.8 µg/mL (≈ 5.97 µM); MIC (B. subtilis EC1524; Bacillus subtilis, EC1524, read-out: Minimal Inhibitory Concentration, B. subtilis EC1524): 6.25 µg/mL (≈ 7.18 µM); Relative Therapeutic Index (RTI), B. subtilis EC1524 (B. subtilis EC1524; [1]): 128; IC50 (B. cereus ATCC11778; Bacillus cereus, ATCC11778): 6.29 ± 2.1 µg/mL (≈ 7.22 µM); MBC (B. cereus ATCC11778; Bacillus cereus, ATCC11778): > 200 µg/mL; MIC (B. cereus ATCC11778; Bacillus cereus, ATCC11778): 83 ± 29 µg/mL (≈ 95.3 µM); MIC (B. cereus ATCC11778; Bacillus cereus, ATCC 11778 / NRRL11778, read-out: Minimal Inhibitory Concentration, B. cereus NRRL 11778): 100 µg/mL (≈ 115 µM); Relative Therapeutic Index (RTI), B. cereus NRRL 11778 (B. cereus ATCC11778; [1]): 8; IC50 (E. coli ATCC25922): 218 µg/mL (≈ 250 µM); MBC (E. coli ATCC25922): 400 µg/mL (≈ 459 µM); MIC (E. coli ATCC25922): > 400 µg/mL; IC50 (P. aeruginosa ATCC27853): 70.3 µg/mL (≈ 80.7 µM); MBC (P. aeruginosa ATCC27853): > 400 µg/mL; MIC (P. aeruginosa ATCC27853): 170 ± 60 µg/mL (≈ 195 µM); IC50 (S. aureus ATCC29219): 177 µg/mL (≈ 203 µM); MBC (S. aureus ATCC29219): > 200 µg/mL; MIC (S. aureus ATCC29219): > 400 µg/mL; MIC (Mtb H37Rv ATCC27294; 168 h, read-out: 1-week MIC in 7H9/ADC/Tw): 16.3 ± 8.8 µg/mL; MIC (Mtb H37Rv ATCC27294; 168 h, read-out: 1-week MIC in GAST/Fe): 3.4 ± 3.1 µg/mL; MIC (Mtb H37Rv ATCC27294; 168 h, read-out: Minimal Inhibitory Concentration, Mtb H37RV a): 16.3 µg/mL; MIC (Mtb H37Rv ATCC27294; 168 h, read-out: Minimal Inhibitory Concentration, Mtb H37RV b): 3.4 µg/mL; Relative Therapeutic Index (RTI), Mtb H37RV a (Mtb H37Rv ATCC27294; minimal lethal dose / MIC, 7H9/ADC/Tw, 800 μg mL-1 used for >400): 49; Relative Therapeutic Index (RTI), Mtb H37RV b (Mtb H37Rv ATCC27294; minimal lethal dose / MIC, GAST/Fe, 800 μg mL-1 used for >400): 235; LD50 values, HEK293 (HEK293 cells): N/A (N/A = not available. No or low cytotoxicity observed at highest, saturating concentration tested (400 µg mL-1)); Minimal Lethal Dose, HEK 293 (HEK293 cells; [2]): > 400 µg/mL; LD50 values, HepG2 (HepG2 cells): N/A (N/A = not available. No or low cytotoxicity observed at highest, saturating concentration tested (400 µg mL-1)); Minimal Lethal Dose, HepG2 (HepG2 cells; [2]): > 400 µg/mL; LD50 values, Raji (Raji cells): 177.75 ± 75.17 µg/mL

Q: Which MIC (Mtb H37Rv ATCC27294; Mtb H37Rv, used for macromolecular incorporation assay, read-out: MIC concentrations for controls) does the source give for `N[C@@H]1CON=C1O` [D-cycloserine, reference compound] here?
A: 29 µM

Q: `CC(=O)N[C@H]1C(O)O[C@H](C[C@@H](O)[C@H]2O[C@@H](n3ccc(=O)[nH]c3=O)[C@H](O)[C@@H]2O)[C@H](O)[C@@H]1O` (stereo partly drawn) [(2), N-acetyl-tunicamyl-uracil] was tested. Which MIC (Mtb H37Rv ATCC27294; [3]) did it give?
A: 42.5 ± 3.5 µg/mL

Q: What about the MIC (Mtb H37Rv ATCC27294; [4]) of the same compound?
A: > 60 µg/mL

Q: And the “LD50 values, HEK293” value (HEK293 cells)?
A: N/A (N/A = not available. No or low cytotoxicity observed at highest, saturating concentration tested (400 µg mL-1))

Q: What about the “LD50 values, HepG2” value (HepG2 cells) of the same compound?
A: N/A (N/A = not available. No or low cytotoxicity observed at highest, saturating concentration tested (400 µg mL-1))

Q: And the “LD50 values, Raji” value (Raji cells)?
A: 303.80 ± 9.83 µg/mL

Q: `CC(=O)N[C@H]1[C@H](O[C@H]2O[C@H](CO)[C@@H](O)[C@H](O)[C@H]2NC(C)=O)O[C@H](C[C@@H](O)[C@H]2O[C@@H](n3ccc(=O)[nH]c3=O)[C@H](O)[C@@H]2O)[C@H](O)[C@@H]1O` [TUN-Ac,Ac, α-D-N-acetylglucosamine-(1”-11')-N-acetyl tunicamyl uracil] was tested. Which MIC (Mtb H37Rv ATCC27294; [3]) did it give?
A: 21.3 ± 1.8 µg/mL

Q: And the MIC (Mtb H37Rv ATCC27294; [4])?
A: ≥ 60 µg/mL

Q: What about the “LD50 values, HEK293” value (HEK293 cells) of the same compound?
A: N/A (N/A = not available. No or low cytotoxicity observed at highest, saturating concentration tested (400 µg mL-1))

Q: What about the “LD50 values, HepG2” value (HepG2 cells) of the same compound?
A: N/A (N/A = not available. No or low cytotoxicity observed at highest, saturating concentration tested (400 µg mL-1))

Q: What about the “LD50 values, Raji” value (Raji cells) of the same compound?
A: 212.30 ± 51.48 µg/mL

Q: Which MIC (Mtb H37Rv ATCC27294; Mtb H37Rv, with clavulanate at a fixed concentration of 100 μM, read-out: MIC concentration for control) does the source give for `C[C@@H](O)[C@H]1C(=O)N2C(C(=O)O)=C(S[C@@H]3CN[C@H](C(=O)N(C)C)C3)[C@H](C)[C@H]12` [meropenem, reference compound] here?
A: 2 µM
